Patent US20030092640A1, “Azalide antibiotic compositions” (Pfizer Inc., priority 2001, published 2003)
Converted amounts (≈) assume the structure as drawn. “And” between values parts separate entries of the source, which are not always exact repeats. Identical values can stand only once.

Experiments:
[1] = test system: E. coli; assay: Assay I liquid dilution MIC, E. coli; assay type: cell-based; details: Escherichia coli, 18 h, read-out: MIC against E. coli
[2] = Potency retention (HPLC stability) of azalide in aqueous propylene glycol/citric acid compositions; assay type: physicochemical; details: 0.1 M citric acid
Procedure: As used in this application, the term “potency” means the amount of an azalide compound present in a “test” sample subjected to a particular set of experimental conditions during a particular time interval, relative to the amount of the azalide compound present in an otherwise identical “control” sample stored at 5° C. for the same time interval. Upon completion of the experiment for a given sample, the test and control samples are typically subjected to appropriate processing steps to allow accurate determination of the amount of the azalide compound. Relative amounts of azalide compound in the test and control samples may be determined by any number of means which are well-known in the art, such as high performance liquid chromatography (“HPLC”), nuclear magnetic resonance spectroscopy (“NMR”), gas chromatography (“GC”), mass spectrometry (“MS”), liquid chromatography/mass spectrometry (“LC/MS”), GC/MS, and thin layer chromatography (“TLC”).
Preferred methods for determining that a stable azalide composition has been obtained include gel chromatography, thin-layer chromatography, and HPLC. More preferably, HPLC is used. To monitor the compositions of the invention for potency, after dilution to final volume and sterilization by filtration, the compositions were subdivided into 3.5 mL glass vials which were sealed with rubber stoppers and an aluminum crimp. For the tests reported below, approximately 10 vials containing 2.5 mL each were prepared.
Approximately 30 mL of each composition listed in Table 1 below was prepared as follows:
1) Sufficient citric acid was added to Water for Injection to produce a solution having a final concentration of acid of 0.1 M;
2) The compound of formula 1a or 1b was added in an amount to produce a final azalide concentration of 100 mg/mL (0.12 mmol/mL of the composition), and the mixture was stirred until the azalide was dissolved;
3) Propylene glycol was added to produce a concentration in the final mixture of from about 25% to about 75% by weight relative to the total volume;
4) The pH was adjusted by addition of 10% aqueous HCl or 10 M aqueous NaOH as necessary;
5) Water for Injection was added to bring the volume to 30 mL;
6) Each sample was subdivided by filtration through a 0.22 micron Millex GV filter into 3.5 mL glass vials which were each sealed with a rubber stopper and an overseal consisting of an aluminum crimp. Approximately 10 vials containing 2.5 mL each were prepared for each sample.
To monitor the stability of the azalide compositions, vials were assayed by HPLC after exposure to elevated temperatures for a period of time. Aliquots were removed from vials and diluted with a mixture of 15% 10 mM potassium phosphate buffer, pH 6.5, 85% 1:1 (v/v) acetonitrile:methanol to a concentration of approximately 1.0 mg of the compound of formula 1 per mL total sample volume. Diluted samples were subjected to chromatography in a Waters Alliance 2690 HPLC system having a 2487 UV detector. The column was a Waters Symmetry C-18, 5 micron (250×4.6 mm), the mobile phase was the same as the phosphate/acetonitrile/methanol diluent above and the flow rate was 1 mL/minute. Peaks were detected by monitoring ultraviolet absorption at 210 nm. Relative amounts of azalide compound in the experimental samples and the controls were determined by taking the ratio of their relative chromatogram-peak areas. Although HPLC was used in this experiment, other known methods, including NMR, GC, MS, LC/MS, GC/MS, and TLC can be used to evaluate the potency of the compound of formula 1.
The results are reported in Table 1 below as a percentage of the compound of formula 1 remaining after exposure to various temperature and duration conditions, relative to the amount of the compound present in an otherwise identical sample stored at 5° C. for the same time interval.

[3] = test system: Pasteurella multocida (strain 59A067); assay: Assay I liquid dilution MIC, P. multocida; assay type: cell-based; details: 100% inhibition of growth, 37° C., 18 hours, BHI broth, read-out: MIC against P. multocida
Procedure: This assay employs conventional methodology and interpretation criteria and is designed to test for activity against Pasteurella multocida, using the liquid dilution method in microliter format. A single colony of P. multocida (strain 59A067) is inoculated into 5 mL of brain heart infusion (BHI) broth. The azalide formulation is prepared by solubilizing 1 mg of the azalide composition in 125 μL of dimethylsulfoxide (DMSO). Dilutions of the azalide compositions are prepared using uninoculated BHI broth. The concentrations of the azalide compounds used range from 200 μg/mL to 0.098 μg/mL by two-fold serial dilutions. The P. multocida inoculated BHI is diluted with uninoculated BHI broth to make a 10^4 cell suspension per 200 μL. The BHI cell suspensions are mixed with respective serial dilutions of the azalide compositions, and incubated at 37° C. for 18 hours.
Accordingly, as expected, the azalide compounds used in this invention are active against a variety of organisms.

[4] = test system: S. aureus; assay: Assay I liquid dilution MIC, S. aureus; assay type: cell-based; details: Staphylococcus aureus, 18 h, read-out: MIC against S. aureus
[5] = preparation 1: propylene glycol 50 w/v %, pH 4.5, 100 mg/mL azalide
[6] = preparation 2: propylene glycol 25 w/v %, pH 5.0, 100 mg/mL azalide
[7] = preparation 3: propylene glycol 75 w/v %, pH 5.0, 100 mg/mL azalide
[8] = preparation 7: propylene glycol 25 w/v %, pH 6.0, 100 mg/mL azalide
[9] = preparation 8: propylene glycol 75 w/v %, pH 6.0, 100 mg/mL azalide
[10] = preparation 9: propylene glycol 50 w/v %, pH 6.5, 100 mg/mL azalide
[11] = preparations 4, 5, 6: propylene glycol 50 w/v %, pH 5.5, 100 mg/mL azalide

SMILES	MIC [1]	Potency (% of 5° C.) 6 weeks, 50° C. [2, 5]	Potency (% of 5° C.) 12 weeks, 50° C. [2, 5]	Potency (% of 5° C.) 6 weeks, 50° C. [2, 6]	Potency (% of 5° C.) 12 weeks, 50° C. [2, 6]	Potency (% of 5° C.) 6 weeks, 50° C. [2, 7]	Potency (% of 5° C.) 12 weeks, 50° C. [2, 7]	Potency (% of 5° C.) 6 weeks, 50° C. [2, 8]	Potency (% of 5° C.) 12 weeks, 50° C. [2, 8]	Potency (% of 5° C.) 6 weeks, 50° C. [2, 9]	Potency (% of 5° C.) 12 weeks, 50° C. [2, 9]	Potency (% of 5° C.) 6 weeks, 50° C. [2, 10]	Potency (% of 5° C.) 12 weeks, 50° C. [2, 10]	Potency (% of 5° C.) 6 weeks, 50° C. [2, 11]	Potency (% of 5° C.) 12 weeks, 50° C. [2, 11]	MIC [3]	MIC [4]
CC[C@H]1OC(=O)[C@H](C)[C@@H](O[C@H]2C[C@@](C)(OC)[C@](O)(CNC(C)C)[C@H](C)O2)[C@H](C)[C@@H](O[C@@H]2O[C@H](C)C[C@H](N(C)C)[C@H]2O)[C@](C)(O)C[C@@H](C)CN(C)[C@H](C)[C@@H](O)[C@]1(C)O [Compound 1a, 1-Oxa-6-azacyclopentadecan-15-one, 13-[[2,6-dideoxy-3-C-methyl-3-O-methyl-4-C-[[(1-methylethyl)amino]methyl]-α-L-ribo-hexopyranosyl]oxy]-2-ethyl-3,4,10-trihydroxy-3,5,6,8,10,12,14-heptamethyl-11-[[3,4,6-trideoxy-3-(dimethylamino)-β-D-xylo-hexopyranosyl]oxy]-, (2R,3S,4R,5R,8R,10R,11R,12S,13S,14R)-]	0.39 µg/mL (≈ 0.476 µM)	91.9%	91.3%	93.6%	87.9%	96.0%	102.6%	90.6%	85.7%	89.5%	89.8%	84.1%	75.9%	96.3% and 95.6% and 93.9%	92.9% and 91.4% and 90.4%	0.05 µg/mL (≈ 0.061 µM)	0.2 µg/mL (≈ 0.244 µM)
CC[C@H]1OC(=O)[C@H](C)[C@@H](O[C@H]2C[C@@](C)(OC)[C@](O)(CN(C)CC)[C@H](C)O2)[C@H](C)[C@@H](O[C@@H]2O[C@H](C)C[C@H](N(C)C)[C@H]2O)[C@](C)(O)C[C@@H](C)CN(C)[C@H](C)[C@@H](O)[C@]1(C)O [Compound 1b, 1-Oxa-6-azacyclopentadecan-15-one, 13-[[2,6-dideoxy-4-C-[(ethylmethylamino)methyl]-3-C-methyl-3-O-methyl-α-L-ribo-hexopyranosyl]oxy]-2-ethyl-3,4,10-trihydroxy-3,5,6,8,10,12,14-heptamethyl-11-[[3,4,6-trideoxy-3-(dimethylamino)-β-D-xylo-hexopyranosyl]oxy]-, (2R,3S,4R,5R,8R,10R,11R,12S,13S,14R)-]	0.39 µg/mL (≈ 0.476 µM)	96.1%	92.1%	96.5%	92.4%	98.8%	96.1%	90.0%	81.5%	93.8%	94.0%	86.5%	76.5%	94.9% and 93.0% and 93.3%	91.8% and 96.1% and 95.3%	0.05 µg/mL (≈ 0.061 µM)	0.39 µg/mL (≈ 0.476 µM)
